# Laboratory results as given in patent US6638928B1, “Treatment of irritable bowel syndrome and nonulcer dyspepsia with substituted 2,3-benzodiazepines” (Vela Pharmaceuticals, Inc., priority 2002, dated 2003).
# Legend:
# [1] = system: colonic propulsive motility; assay: Glass bead test of colonic propulsive motility in mice; format: in vivo, mouse; details: 32 mg/kg IP; for Expulsion Time Mean ± SEM: 3 mm glass bead inserted 30 minutes after dosing, cut-off time 30 minutes, 10 per group; for Expulsion Time Mean ± SEM / inhibition at 32 mg/kg: female Swiss Webster mice; for inhibition at 32 mg/kg: Mus musculus, inhibition of bead expulsion vs vehicle; for inhibition of colonic propulsion (in words): summary of Table 1 data, mice
# Text: This model is predictive of agents that may be used to treat the alterations in propulsion of intestinal contents that occur in individuals diagnosed with IBS. The model is very sensitive to test compounds producing inhibitory effects on propulsive motor activity, but is not sensitive to test articles increasing colonic propulsive motility. The model provides a direct measure of colonic propulsion. Thus, a test compound that slows the rate at which a glass bead is expelled, is predicted to have utility in the treatment of IBS,
# This test is also used to evaluate test articles with potential to produce constipation, antidiarrheal activity, or have selective visceral anti-nociceptive activity in addition to being used as an animal model for irritable bowel syndrome.
# For the present example, seventy test animals (female, 6 week old Swiss Webster mice, 18-30 g) were divided into 7 groups of 10 animals each for administration of six test compounds and vehicle alone as a control.
# Each animal was dosed (IP) with either a compound of formula I, one of two related 2,3-benzodiazepines or vehicle alone. Thirty minutes after dosing, a 3 mm glass bead was inserted through the anus to a depth of 2 cm into the distal colon using a glass rod. […] Any test animal that had not expelled the bead within a cut-off time of 30 minutes was sacrificed and the position of the bead in the lumen of the colon was verified.
# Such observations included gross evaluation of skin and fur, eyes and mucous membranes, respiratory, circulatory, autonomic and central nervous system, somatomotor activity and behavioral patterns. Particular attention was directed to observation of tremors, convulsions, salivation, diarrhea, sleep and coma. No signs of gross toxicity were observed. Mean and standard error of the mean were calculated for the expulsion times for each group.
# peripheral BZ receptors = peripheral BZ receptors (Homo sapiens, UniProt P30536); details: cited from earlier work
# Chain of peripheral BZ receptors (P30536 whole entry): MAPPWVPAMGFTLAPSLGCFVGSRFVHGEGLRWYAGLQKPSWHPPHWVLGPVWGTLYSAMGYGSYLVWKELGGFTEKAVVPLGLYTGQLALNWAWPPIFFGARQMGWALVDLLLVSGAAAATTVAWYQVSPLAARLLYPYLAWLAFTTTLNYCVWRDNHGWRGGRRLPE
# central BZ receptors = details: cited from earlier work
# [2] = system: anti-noradrenergic effects; details: cited from earlier work
# aggression in mice = details: cited from earlier work
# muricide in rats = details: cited from earlier work
# narcosis in mice = details: cited from earlier work
SMILES,Expulsion Time Mean ± SEM [1],inhibition at 32 mg/kg [1] [%],inhibition of colonic propulsion (in words) [1],binding to peripheral BZ receptors (peripheral BZ receptors),interaction with central BZ receptors (central BZ receptors),anti-noradrenergic effects [2],inhibition of aggression (aggression in mice) [%],inhibition of muricide (muricide in rats) [%],narcosis-potentiating activity (narcosis in mice)
"CCC1C(C)=NN=C(c2ccc(OC)c(OC)c2)c2cc(O)c(OC)cc21 (racemic) [Compound 2, 1-(3,4-dimethoxyphenyl)-4-methyl-5-ethyl-7-methoxy-8-hydroxy-5H-2,3-benzodiazepine]",17.2 ± 3.5,23,–,–,–,–,–,–,–
"CCC1C(C)=NN=C(c2ccc(OC)c(O)c2)c2cc(OC)c(OC)cc21 (racemic) [Compound 4, 1-(3-hydroxy-4-methoxyphenyl)-4-methyl-5-ethyl-7,8-dimethoxy-5H-2,3-benzodiazepine]",20.3 ± 3.5,42,substantial inhibition of colonic propulsion,–,–,–,–,–,–
"CCC1C(C)=NN=C(c2ccc(OC)c(OC)c2)c2cc(OC)c(OC)cc21 (racemic) [tofisopam, 1-(3,4-dimethoxyphenyl)-4-methyl-5-ethyl-7,8-dimethoxy-5H-2,3-benzodiazepine]",–,–,–,binds only weakly,does not interact,–,–,–,–
"CCC1C(C)=NN=C(c2ccc(OC)c(OC)c2)c2cc(OC)c(O)cc21 (centres unmarked) [Compound 1, 1-(3,4-dimethoxyphenyl)-4-methyl-5-ethyl-7-hydroxy-8-methoxy-5H-2,3-benzodiazepine]",6.9 ± 3.7,22,–,–,–,no effect,0,20,–
"CCC1C(C)=NN=C(c2ccc(OC)c(O)c2)c2cc(OC)c(O)cc21 (centres unmarked) [Compound 6, 1-(3-hydroxy-4-methoxyphenyl)-4-methyl-5-ethyl-7-hydroxy-8-methoxy-5H-2,3-benzodiazepine, reference compound]",10.7 ± 3.4,0,–,–,–,–,–,–,–
"CCC1C(C)=NN=C(c2ccc(O)c(OC)c2)c2cc(OC)c(OC)cc21 (centres unmarked) [Compound 3, 1-(3-methoxy-4-hydroxyphenyl)-4-methyl-5-ethyl-7,8-dimethoxy-5H-2,3-benzodiazepine]",20.0 ± 3.1,40,substantial inhibition of colonic propulsion,–,–,measurable activity,0,0,narcosis-potentiating activity
"CCC1C(C)=NN=C(c2ccc(O)c(OC)c2)c2cc(OC)c(O)cc21 (centres unmarked) [Compound 5, 1-(3-methoxy-4-hydroxyphenyl)-4-methyl-5-ethyl-7-hydroxy-8-methoxy-5H-2,3-benzodiazepine, reference compound]",12.0 ± 3.2,0,–,–,–,measurable activity,28.6,20,–
